Measured values published in patent US20110144323A1, “AMORPHOUS AND CRYSTALLINE FORMS OF SMILAGENIN AND ITS HYDRATES” (PHYTOPHARM PLC, priority 2004, published 2011).

Assay: Vapour sorption studies
Type: physicochemical
Description: As is well known, a channel hydrate is a hydrate in which the crystal lattice of the molecule forms a channel or cage enclosing a void which can wholly or partially accommodate water (or solvent) molecules. The stoichiometric (molar) ratio of smilagenin:water at any particular time will depend on such factors as the humidity of the surrounding atmosphere, as the water molecules are generally free to enter or leave the void.

C[C@@H]1CC[C@@]2(OC1)O[C@H]1C[C@H]3[C@@H]4CC[C@@H]5C[C@@H](O)CC[C@]5(C)[C@H]4CC[C@]3(C)[C@H]1[C@@H]2C [Crystalline Form VI, smilagenin]
hygroscopicity in vapour sorption study (FIG. 11): hygroscopic | water adsorbed, molar equivalents (at high humidity, i.e. a dihydrate): about 2 mol. eq. water | water adsorbed in vapour sorption study (at high humidity, water reversibly lost at low humidity (FIG. 11)): up to 9 % water
